The values below come from patent US4742045A, “Glycopeptide antibiotics” (SmithKline Beckman Corporation, priority 1986, dated 1988).

In brackets after ≈: the same amount, converted by molar mass. Read-outs that look alike come from different tables or passages of the source.

For this experiment, the system named is Staphylococcus epidermidis. Nature of the experiment: standard microtiter assay, minimum inhibitory concentration. Format: cell-based. The procedure, abridged: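 Broth microtiter MIC (μg/ml) of CWI-785 antibiotic, as complex, individual components or HCl salts, against several staphylococcal strains. Some assays run without serum or in 50% human or 50% mouse serum.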

Compound `CN[C@H](CC(C)C)C(=O)N[C@H]1C(=O)N[C@@H](CC(N)=O)C(=O)N[C@H]2C(=O)N[C@H]3C(=O)N[C@H](C(=O)N[C@H](C(=O)O)c4cc(O)cc(O)c4-c4cc3ccc4O)[C@H](O)c3ccc(c(Cl)c3)Oc3cc2cc(c3O[C@@H]2O[C@H](CO)[C@@H](O)[C@H](O)[C@H]2O[C@H]2C[C@](C)(N)[C@H](O)[C@H](C)O2)Oc2ccc(cc2Cl)[C@H]1O` [Vancomycin, vancomycin] returned an MIC (Staphylococcus epidermidis, Table 5 organism 2 S. epidermidis, 50% Hum. Serum) of 3.1 µg/mL (≈ 2.14 µM); an MIC (Staphylococcus epidermidis, Table 5 organism 2 S. epidermidis, 50% Mse. Serum) of 3.1 µg/mL (≈ 2.14 µM); an MIC (Staphylococcus epidermidis, Table 5 organism 2 S. epidermidis, No Serum) of 1.6 µg/mL (≈ 1.1 µM); an MIC (Staphylococcus epidermidis, Table 5 organism 4 S. epidermidis, 50% Hum. Serum) of 3.1 µg/mL (≈ 2.14 µM); an MIC (Staphylococcus epidermidis, Table 5 organism 4 S. epidermidis, 50% Mse. Serum) of 3.1 µg/mL (≈ 2.14 µM); an MIC (Staphylococcus epidermidis, Table 5 organism 4 S. epidermidis, No Serum) of 1.6 µg/mL (≈ 1.1 µM). In addition, the MIC is not above 0.1 µg/mL (Staphylococcus epidermidis, Table 5 organism 5 S. epidermidis, 50% Hum. Serum); 3.1 µg/mL (≈ 2.14 µM) (Staphylococcus epidermidis, Table 5 organism 5 S. epidermidis, 50% Mse. Serum); 1.6 µg/mL (≈ 1.1 µM) (Staphylococcus epidermidis, Table 5 organism 5 S. epidermidis, No Serum); 1.6 µg/mL (≈ 1.1 µM) (Staphylococcus epidermidis, read-out: minimum inhibitory concentration, Table 1 test organism 14, S. epidermidis strain); 3.1 µg/mL (≈ 2.14 µM) (Staphylococcus epidermidis, read-out: minimum inhibitory concentration, Table 1 test organism 15, S. epidermidis strain); 1.6 µg/mL (≈ 1.1 µM) (Staphylococcus epidermidis, read-out: minimum inhibitory concentration, Table 1 test organism 16, S. epidermidis strain). In addition, the MIC runs as follows: (Staphylococcus epidermidis, read-out: minimum inhibitory concentration, Table 2 test organism 6, S. epidermidis strain) 1.6 µg/mL (≈ 1.1 µM); (Staphylococcus epidermidis, read-out: minimum inhibitory concentration, Table 2 test organism 8, S. epidermidis strain) 1.6 µg/mL (≈ 1.1 µM); (Staphylococcus epidermidis, read-out: minimum inhibitory concentration, Table 2 test organism 12, S. epidermidis strain) 1.6 µg/mL (≈ 1.1 µM); (Staphylococcus epidermidis, read-out: minimum inhibitory concentration, Table 2 test organism 14, S. epidermidis strain) 1.6 µg/mL (≈ 1.1 µM).

For teicoplanin, the minimum inhibitory concentration (Table 1 test organism 14, S. epidermidis strain) is 1.6 µg/mL; the minimum inhibitory concentration (Table 1 test organism 15, S. epidermidis strain) worked out at 12.5 µg/mL; the minimum inhibitory concentration (Table 1 test organism 16, S. epidermidis strain) was 6.3 µg/mL; the minimum inhibitory concentration (Table 2 test organism 6, S. epidermidis strain) came out at 12.5 µg/mL; the minimum inhibitory concentration (Table 2 test organism 8, S. epidermidis strain) is 12.5 µg/mL; the minimum inhibitory concentration (Table 2 test organism 12, S. epidermidis strain) was 12.5 µg/mL. Moreover, under “Table 2 test organism 14, S. epidermidis strain”, the minimum inhibitory concentration was 3.1 µg/mL. Also, the MIC (Table 5 organism 2 S. epidermidis, 50% Hum. Serum) worked out at 50.0 µg/mL; the MIC (Table 5 organism 2 S. epidermidis, 50% Mse. Serum) was 50.0 µg/mL; the MIC (Table 5 organism 2 S. epidermidis, No Serum) worked out at 12.5 µg/mL; the MIC (Table 5 organism 4 S. epidermidis, 50% Hum. Serum) came to 50.0 µg/mL; the MIC (Table 5 organism 4 S. epidermidis, 50% Mse. Serum) came to 25.0 µg/mL; the MIC (Table 5 organism 4 S. epidermidis, No Serum) amounted to 12.5 µg/mL. Also, the MIC reads like this: (Table 5 organism 5 S. epidermidis, 50% Hum. Serum) more than 100 µg/mL; (Table 5 organism 5 S. epidermidis, 50% Mse. Serum) “<= 0.1 μg/ml”; (Table 5 organism 5 S. epidermidis, No Serum) 12.5 µg/mL.
